# Publication PMC1781467, “In silico panning for a non-competitive peptide inhibitor” (BMC Bioinformatics, 2007)
# Ends that are not written are not given here. Peptide text beside a SMILES is read from it.
# What was measured:
# PQQGDH [1] = molecular target: T1, PQQGDH (Acinetobacter calcoaceticus, UniProt P13650); assay: PQQGDH activity for glucose in the presence of synthetic peptides (PMS/DCIP assay); format: biochemical; details: derived from the Dixon plot; 0.57 nM apo-PQQGDH, glucose substrate, pH 7.0; read-out: Ki (inhibition constant)
# T1 sequence (P13650 25-478): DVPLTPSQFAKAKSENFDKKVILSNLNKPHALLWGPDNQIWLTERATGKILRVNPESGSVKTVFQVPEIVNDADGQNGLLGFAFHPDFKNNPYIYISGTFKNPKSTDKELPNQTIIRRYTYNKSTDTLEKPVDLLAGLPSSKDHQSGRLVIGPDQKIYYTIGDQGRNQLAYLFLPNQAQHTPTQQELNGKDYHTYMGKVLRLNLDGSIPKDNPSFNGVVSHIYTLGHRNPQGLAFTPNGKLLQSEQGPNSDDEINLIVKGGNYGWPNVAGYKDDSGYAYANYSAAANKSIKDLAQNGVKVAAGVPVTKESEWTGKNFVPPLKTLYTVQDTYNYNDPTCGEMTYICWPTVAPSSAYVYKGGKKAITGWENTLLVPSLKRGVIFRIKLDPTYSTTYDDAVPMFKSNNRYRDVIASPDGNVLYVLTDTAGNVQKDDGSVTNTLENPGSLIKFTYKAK
# Experimental: The three peptides with the lowest docking energies, GEKD, GERD, and SERG, and the control peptide DDDD were synthesized by Qiagen (Chatsworth, CA, USA). […] In general, purified PQQGDH is a mixture of an apo- and holo-type enzyme. Therefore, we dialyzed the enzyme against 100 mM EDTA and 10 mM MOPS-NaOH buffer for 2 days, to remove the Ca^2+ ions. Each synthesized peptide was prepared at concentrations of 0.2, 1, 2, 10, and 20 μM. The prepared peptides and 0.57 nM of apo-PQQGDH were incubated in 10 mM MOPS-NaOH buffer (pH 7.0) for 10 min at room temperature. PQQGDH activity was measured using 0.6 mM PMS and 0.06 mM DCIP. Decreased in the absorbance of DCIP at 600 nm at various concentrations of glucose were monitored, and the kinetic parameters of PQQGDH were as described previously. The kinetic parameters and Ki values were calculated using the KaleidaGraph software.
# PQQGDH [2] = molecular target: T1, PQQGDH; set-up: method as in PMID 12882541; details: peptide from phage display peptide library; cited from earlier work
Compound,Ki (PQQGDH [1]) [µM],Effect on substrate specificity of PQQGDH (PQQGDH [2])
N[C@@H](CC(=O)O)C(=O)N[C@@H](CC(=O)O)C(=O)N[C@@H](CC(=O)O)C(=O)N[C@@H](CC(=O)O)C(=O)O [DDDD] (H-DDDD-OH),> 100,
NCCCC[C@H](NC(=O)[C@H](CCC(=O)O)NC(=O)CN)C(=O)N[C@@H](CC(=O)O)C(=O)O [GEKD] (H-GEKD-OH),> 20,
N=C(N)NCCC[C@H](NC(=O)[C@H](CCC(=O)O)NC(=O)CN)C(=O)N[C@@H](CC(=O)O)C(=O)O [GERD] (H-GERD-OH),> 20,
N=C(N)NCCC[C@H](NC(=O)[C@H](CCC(=O)O)NC(=O)[C@@H](N)CO)C(=O)NCC(=O)O [SERG] (H-SERG-OH),20,
TTATEYS [seven-amino-acid peptide previously identified from a phage display peptide library],,narrowed the substrate specificity of PQQGDH without significant loss of enzyme activity
